Measurements: US20220331217A1, “Hair restructuring association comprising a quaternary ammonium salt and a sulpho-derivative of vegetable fatty acids” (Greengredients S.r.l., priority 2021, published 2022)

Test: During breakage test combing (weight of broken hairs after 20 combings)
Settings: bleached strands, treated at 15%, combed 20 times, vs bleached untreated reference
Source text: All samples (hair strands) have been combed for 20 times and broken hairs have been weighted (with 0.0001 g accuracy, METTLER TOLEDO EXCELLENCE analytical scale).

NCCCOCCOCCOCCCN.O=C(O)C=CC(=O)O.O=C(O)C=CC(=O)O [bis-aminopropyl diglycol dimaleate]
reduction in broken hairs: 50.00%
